Source: US9469597B2, “(Hetero)aryl cyclopropylamine compounds as LSD1 inhibitors” (ORYZON GENOMICS, S.A., priority 2011, dated 2016)
Counter-ions that a name gives are not always drawn.

Experiments:
[1] = molecular target: Human recombinant monoamine oxidase MAO-A (Homo sapiens (Human), UniProt P21397); test: Monoamine oxidase assay (kynuramine to 4-hydroxyquinoline fluorescence), MAO-A; type: biochemical; conditions: for Ki: Table 1, term Ki value used as designation for the IC50 value; for IC50: Table 2
Chain of Human recombinant monoamine oxidase MAO-A (P21397 whole entry): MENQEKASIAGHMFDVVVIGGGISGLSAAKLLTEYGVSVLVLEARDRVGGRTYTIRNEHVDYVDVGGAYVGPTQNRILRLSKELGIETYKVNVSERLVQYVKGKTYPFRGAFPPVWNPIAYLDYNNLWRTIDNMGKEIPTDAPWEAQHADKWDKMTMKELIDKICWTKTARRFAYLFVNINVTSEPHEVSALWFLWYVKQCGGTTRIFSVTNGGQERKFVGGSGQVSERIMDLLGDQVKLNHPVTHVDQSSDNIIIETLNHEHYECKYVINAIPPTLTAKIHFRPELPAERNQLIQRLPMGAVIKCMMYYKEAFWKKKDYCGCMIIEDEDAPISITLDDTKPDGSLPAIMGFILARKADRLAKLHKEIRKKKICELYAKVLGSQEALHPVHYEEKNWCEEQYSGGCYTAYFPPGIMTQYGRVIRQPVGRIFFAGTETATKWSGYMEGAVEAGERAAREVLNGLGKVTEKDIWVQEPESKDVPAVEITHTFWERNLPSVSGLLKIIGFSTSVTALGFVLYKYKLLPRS
Excerpt: (§1) Human recombinant monoamine oxidase proteins MAO-A and MAO-B were purchased from Sigma Aldrich. MAOs catalyze the oxidative deamination of primary, secondary and tertiary amines. In order to monitor MAO enzymatic activities and/or their inhibition rate by inhibitor(s) of interest, a fluorescence-based (inhibitor)-screening assay was set up. 3-(2-Aminophenyl)-3-oxopropanamine (kynuramine dihydrobromide, Sigma Aldrich), a non fluorescent compound was chosen as a substrate. Kynuramine is a non-specific substrate for both MAO-A and MAO-B activities. While undergoing oxidative deamination by MAO activities, kynuramine is converted into 4-hydroxyquinoline (4-HQ), a resulting fluorescent product.
(§2) The monoamine oxidase activity was estimated by measuring the conversion of kynuramine into 4-hydroxyquinoline. Assays were conducted in 96-well black plates with clear bottom (Corning) in a final volume of 100 μL. The assay buffer was 100 mM HEPES, pH 7.5. Each experiment was performed in duplicate within the same experiment.
Clorgyline and Deprenyl (Sigma Aldrich) was used as a control for specific inhibition of MAO-A and MAO-B respectively.
After leaving the enzyme(s) interacting with the inhibitor, KM of kynuramine was added to each reaction for MAO-B and MAO-A assay respectively, and the reaction was left for 1 hour at 37° C. in the dark. The oxidative deamination of the substrate was stopped by adding 50 μL of NaOH 2N.
(§3) The IC50 values of each inhibitor were calculated with GraphPad Prism Software.

[2] = molecular target: Human recombinant monoamine oxidase MAO-B (Homo sapiens (Human), UniProt P27338); test: Monoamine oxidase assay (kynuramine to 4-hydroxyquinoline fluorescence), MAO-B; type: biochemical; conditions: Table 2
Excerpt: as §1, §2
Clorgyline and Deprenyl (Sigma Aldrich) was used as a control for specific inhibition of MAO-A and MAO-B respectively. […]
as §3

THP-1 cells = test: Induction of differentiation of THP-1 leukemia cells (CD11b membrane expression, flow cytometry); type: cell-based, human; conditions: at 100 nM, 96 h treatment
Procedure: By analyzing the induction of CD11b membrane expression on THP-1 cells we are assessing the ability of LSD1 inhibitors to induce terminal monocytic differentiation of a MLL-AF9 AML cell line. […] They carry t(9;11)(p21;q23) leading to MLL-MLLT3 (MLL-AF9) fusion gene. This cell line can undergo monocytic differentiation upon treatment with the appropriate stimulus. […] In this assay, 150,000 THP-1 cells were seeded in 1 ml of complete culture medium in 6-well tissue culture plates. […] Cells were kept in the presence of test compound for 96 h at a 5% CO2 atmosphere at 37° C. After this treatment period, cells were harvested, washed twice with PBS buffer and placed in a V-bottom 96-well plate. Each treated sample was split in two. […] Percentage of CD11b positive cells, as an indicator of monocytic differentiation, was determined compared to isotype control antibody stained cells. EC50 values were calculated by non-linear regression analysis.

Row | IC50 [2] | Compound | Ki [1] | IC50 [1] | CD11b+ cells (THP-1 cells)
1 | – | NC1CCC(N[C@H]2C[C@@H]2c2ccccc2)CC1 (mixture of isomers) [Example 1, N1-((trans)-2-phenylcyclopropyl)cyclohexane-1,4-diamine dihydrochloride] | > 40 µM | > 100 µM | –
2 | – | NC1CCC(N[C@@H]2C[C@@H]2c2ccccc2)CC1 (relative stereo) [Example 21, N1-((cis)-2-phenylcyclopropyl)cyclohexane-1,4-diamine] | – | 5.23 µM | –
4 | – | N[C@H]1CC[C@@H](N[C@H]2C[C@@H]2c2ccccc2)CC1 [Example 2, (cis)-N1-((1S,2R)-2-phenylcyclopropyl)cyclohexane-1,4-diamine hydrochloride] | > 40 µM | > 100 µM | –
5 | – | Cl.N[C@H]1CC[C@H](N[C@H]2C[C@@H]2c2ccccc2)CC1 [Example 3, (trans)-N1-((1S,2R)-2-phenylcyclopropyl)cyclohexane-1,4-diamine hydrochloride] | > 40 µM | > 100 µM | 13% CD11b+ cells at 100 nM
6 | – | N[C@H]1CC[C@@H](N[C@@H]2C[C@H]2c2ccccc2)CC1 [Example 4, (cis)-N1-((1R,2S)-2-phenylcyclopropyl)cyclohexane-1,4-diamine hydrochloride] | > 40 µM | > 100 µM | –
7 | – | N[C@H]1CC[C@H](N[C@@H]2C[C@H]2c2ccccc2)CC1 [Example 5, (trans)-N1-((1R,2S)-2-phenylcyclopropyl)cyclohexane-1,4-diamine hydrochloride] | – | > 100 µM | –
